Entries after “also recorded” stand apart in the source; their conditions may differ.
Columns and labels:
Histamine H2 = target: T1, Histamine H2 (Homo sapiens, UniProt P25021); experiment: Radioligand displacement (Ricerca); type: binding
T1 construct: Ricerca (contract laboratory that ran the panel)

Adenosine A3 = target: T2, Adenosine A3 (Homo sapiens, UniProt P0DMS8); experiment: Radioligand displacement (Ricerca); type: binding
T2 construct: Ricerca (contract assay)

GIRK2/3 = target: T3, GIRK2/3 (Homo sapiens, UniProt P48051+Q92806); experiment: Thallium flux assay, HEK-293 cells expressing GIRK2/3; type: cell-based; conditions: cell line GIRK2-3
T3 construct: expressed in transfected cells; host or cells: HEK-293
T3 sequence (P48051 1-423): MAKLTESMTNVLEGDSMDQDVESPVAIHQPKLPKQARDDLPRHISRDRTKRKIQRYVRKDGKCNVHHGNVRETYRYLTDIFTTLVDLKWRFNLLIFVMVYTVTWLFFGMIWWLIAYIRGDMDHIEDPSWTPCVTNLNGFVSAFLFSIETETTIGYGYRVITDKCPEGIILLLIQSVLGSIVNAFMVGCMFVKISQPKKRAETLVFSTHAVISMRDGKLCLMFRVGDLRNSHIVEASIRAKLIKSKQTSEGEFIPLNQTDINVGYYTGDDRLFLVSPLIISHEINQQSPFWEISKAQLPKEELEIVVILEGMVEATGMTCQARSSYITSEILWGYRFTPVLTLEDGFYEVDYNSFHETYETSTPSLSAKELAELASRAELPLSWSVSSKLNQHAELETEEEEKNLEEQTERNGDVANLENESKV
T3 sequence (Q92806 1-393): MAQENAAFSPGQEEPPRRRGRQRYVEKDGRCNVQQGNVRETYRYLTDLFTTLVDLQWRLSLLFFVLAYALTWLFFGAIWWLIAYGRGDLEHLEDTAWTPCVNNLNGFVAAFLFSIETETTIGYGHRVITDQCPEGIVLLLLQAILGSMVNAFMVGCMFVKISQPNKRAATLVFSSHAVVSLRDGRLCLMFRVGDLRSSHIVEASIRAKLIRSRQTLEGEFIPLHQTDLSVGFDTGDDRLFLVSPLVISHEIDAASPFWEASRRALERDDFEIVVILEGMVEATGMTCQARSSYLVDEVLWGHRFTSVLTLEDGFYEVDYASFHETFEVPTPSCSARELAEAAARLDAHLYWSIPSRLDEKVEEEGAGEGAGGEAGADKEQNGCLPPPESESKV
Source text: Cell Line Construction and Cell Culture. HEK-293 cells co-expressing human GIRK1/2 and rat mGlu8 were generated as previously described (Niswender et al., 2008). A HEK-293 cell line (ATCC, Manassas, Va.) expressing human GIRK1 and human GIRK2 was constructed by transfecting HEK-293 cells with GIRK1 and GIRK2 (Origene, Rockville, Md.) cloned into the pBudCE4.1 vector (Life Technologies, Carlsbad, Calif.) using FuGene 6 (Promega, Madison, Wis.) transfection reagent. Unless otherwise noted, other ion channel-expressing cells were prepared by transfecting HEK-293 cells with individual or combinations of subunits: GIRK1, pCMV6-A-BSD; GIRK2, pCMV6-A-puro; GIRK3, pCMV6-A-hygro; GIRK4, pCMV6-A-AC; Kv7.4, pIRESneo3. The Kir2.1 and hERG-expressing cell lines were made by transfecting T-REx-293 cells (Life Technologies, Carlsbad, Calif.) with Kir2.1 and Kv11.1, respectively, cloned into pcDNA5TO. Monoclonal cell lines were produced by limiting-dilution cloning of antibiotic-resistant cells and functional selection using the thallium flux assay described below. Unless otherwise noted, cells were maintained in Minimal Essential Medium, Alpha Medium (Mediatech, Manassas, Va.) supplemented with 10% fetal bovine serum (Sigma-Aldrich, Saint Louis, Mo.) and GlutaGro (Mediatech, Manassas, Va.), referred to henceforth as cell culture medium. […]

T2 sequence (P0DMS8 whole entry): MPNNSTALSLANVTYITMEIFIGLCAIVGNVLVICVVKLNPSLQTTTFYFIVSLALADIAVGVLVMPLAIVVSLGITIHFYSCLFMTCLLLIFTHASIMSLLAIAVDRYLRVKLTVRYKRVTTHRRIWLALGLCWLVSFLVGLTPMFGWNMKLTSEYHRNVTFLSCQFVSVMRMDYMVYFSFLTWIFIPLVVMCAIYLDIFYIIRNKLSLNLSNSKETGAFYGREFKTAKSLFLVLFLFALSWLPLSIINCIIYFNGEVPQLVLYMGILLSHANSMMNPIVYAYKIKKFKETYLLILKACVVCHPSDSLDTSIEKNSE
T1 sequence (P25021 whole entry): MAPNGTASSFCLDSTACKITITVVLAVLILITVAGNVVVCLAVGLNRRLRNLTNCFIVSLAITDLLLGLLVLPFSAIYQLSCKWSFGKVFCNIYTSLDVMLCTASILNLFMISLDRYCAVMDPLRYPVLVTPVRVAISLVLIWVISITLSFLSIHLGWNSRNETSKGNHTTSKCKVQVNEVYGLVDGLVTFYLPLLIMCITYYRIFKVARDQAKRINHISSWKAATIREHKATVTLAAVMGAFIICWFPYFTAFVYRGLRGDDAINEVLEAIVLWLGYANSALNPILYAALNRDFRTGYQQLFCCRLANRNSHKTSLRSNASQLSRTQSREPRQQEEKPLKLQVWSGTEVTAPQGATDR

With `Cc1cc(NC(=O)Nc2ccc(F)c(F)c2)n(-c2ccccc2)n1` [VU0456810, 1-(3,4-difluorophenyl)-3-(3-methyl-1-phenyl-1H-pyrazol-5-yl)urea] the inhibition at 10 µM (Histamine H2) was -2%, the inhibition at 10 µM (Adenosine A3) was 8% and the “EC50 Thallium Flux” value (GIRK2/3) was “complete lack of efficacy; also recorded: Inactive”. The “EC50 Thallium Flux” value (GIRK2/3; listed as 2) was “inactive”.
